Experimental data published in patent US8101745B2, “Lung-targeted drugs” (priority 2004, dated 2012).
pEC50: −log10 of the molar value. Where “and” joins values, the source holds several entries; their conditions need not be identical. Equal values may be shown once. Read-outs that look alike come from different tables or passages of the source.

Columns and labels:
Cowpox Brighton [1] = conditions: cited from earlier work
[2] = in vivo; cited from earlier work
ectromelia virus [3] = conditions: mouse, in vivo, po, cited from earlier work
Vaccinia Copenhagen [4] = conditions: cited from earlier work; for pEC50: Vaccinia Copenhagen, effective dose 50%
Cowpox Brighton [5] = assay type: cell-based
[6] = toxic dose 50%; read-out: TC50 (the source's name); cited from earlier work
Vaccinia Copenhagen [7] = assay type: cell-based
[8] = Oral pharmacokinetics of 14C-labeled drug, liver and lung levels in mice; conditions: for AUC 14C-Drug Liver / AUC 14C-Drug Lung / Ratio Lung/Liver / Ratio Liver/Lung: 10 mg/kg single oral dose, 0 to 72 hours; for Ratio Lung/Liver / Ratio Liver/Lung: ratio of AUC
ectromelia virus [9] = tested on: ectromelia virus; parameters: species or system Female A/NCR mice; conditions: mouse, in vivo, po

SMILES | pEC50 (Cowpox Brighton [1]) | Lung titer (ectromelia virus [3]; 10 mg/kg) | Mortality (ectromelia virus [3]; 10 mg/kg) | Spleen titer (ectromelia virus [3]; 10 mg/kg) | pEC50 (Vaccinia Copenhagen [4]) | SI (Cowpox Brighton [5]) | CC50 [6] | SI (Vaccinia Copenhagen [7]) | AUC 14C-Drug Liver ([8]; mice) | AUC 14C-Drug Lung ([8]; mice) | Ratio Lung/Liver [8] | Ratio Liver/Lung ([8]; 10 mg/kg) | also measured
Nc1ccn(C[C@@H](CO)OCP(=O)(O)O)c(=O)n1 [CDV, cidofovir] | 4.38 | 3 × 10^6 pfu/ml | 100% | 3 × 10^6 pfu/ml | 4.51 | >7.5 | > 317000 nM | >10 | – | – | – | – | oral bioavailability [2]: < 6%
CCCCCCCCCCCCCCCCOCCCOP(=O)(O)CO[C@H](CO)Cn1ccc(N)nc1=O [HDP-CDV, hexadecyloxypropyl-CDV] | 6.30 | 5 × 10^4 pfu/ml | 0% | <10^2 pfu/ml | 6.22 | 58 | 29000 nM | 48 | 1367 nmol · gm · hrs | 49 nmol · gm · hrs | 0.04 | 27.9 | Liver titer (ectromelia virus [3]; 10 mg/kg): <10^2 pfu/ml
CCCCCCCCCCCCCCCCCCOC[C@H](COP(=O)(O)CO[C@H](CO)Cn1ccc(N)nc1=O)OCc1ccccc1 [ODBG-CDV, 1-O-Octadecyl-2-O-benzyl-sn-glycero-3-cidofovir] | 6.52 | – | – | – | 6.40 | 157 | 47000 nM | 118 | 318 nmol · gm · hrs | 581 nmol · gm · hrs | 1.82 | – | activity against cowpox virus in vitro (Cowpox Brighton [1]): highly active; activity against vaccinia virus in vitro (Vaccinia Copenhagen [4]; in words): highly active; Lung levels of 14C-labeled drug ([8]; 10 mg/kg oral, mice, over 72 hours, compared with HDP-CDV or ODE-CDV (FIG. 1)): much higher; liver levels of 14C-labeled drug ([8]; 10 mg/kg oral, mice, over 72 hours, compared with HDP-CDV or ODE-CDV (FIG. 2)): lower; lung area under curve relative to alkoxyalkyl derivatives of CDV ([8]; given orally, versus non lung-targeted alkoxyalkyl derivatives): 10 fold; Ratio Liver/Lung [8]: 0.55; Mortality day 21 (ectromelia virus [9]): 2/10 and 0/10; protection from death (ectromelia virus [9]): provides protection from death; Mean time to death (ectromelia virus [9]; 2 mg/kg/day): 13.0 ± 1.4
CCCCCCCCCCCCCCCCCCOCCOP(=O)(O)CO[C@H](CO)Cn1ccc(N)nc1=O [ODE-CDV, octadecyloxyethyl-CDV] | 6.30 | – | – | – | 6.22 | 105 | 21000 nM | 105 | 1215 nmol · gm · hrs | 60 nmol · gm · hrs | 0.05 | 20.3 | Liver titer (ectromelia virus [3]; 5 mg/kg): <10^2 pfu/ml; Lung titer (ectromelia virus [3]; 5 mg/kg): 3 × 10^5 pfu/ml; Mortality (ectromelia virus [3]; 5 mg/kg): 0%; Spleen titer (ectromelia virus [3]; 5 mg/kg): <10^2 pfu/ml
